Tests used:
biotinylated tubulin = experiment: Colchicine competitive-binding assay; conditions: at 10 μM concentration; 3H-colchicine; left column pair of Table 7
Description: The colchicine competitive-binding assay was done by using the Colchicine Site competitive Assay Kit (Cytoskeleton, Inc.), streptavidin-coated yttrium SPA beads(GE Healthcare, Inc.), and ^3H-colchicine(PerkinElmer, Inc.). Briefly, the binding mixture includes 1 μL^3H-labeled ligand (specific activity […]), and 1 μg biotinylated tubulin and 88 μg SPA beads in 200 μL assay buffer. The test compound and ^3H-labeled ligand were added before tubulin. After incubation at 37° C. for 2 hours, the SPA beads were allowed to settle down for 24 hours at room temperature, and scintillation counting was done on the TopCount Microplate Scintillation Counter.

KB cell = experiment: MTS assay, growth inhibition of KB cells; assay type: cell-based; conditions: Homo sapiens, at 10 μM concentration, incubated for 72 h, read-out: Inhibition rate (%) (growth inhibition rate of MTS assay)
Description: MTS assay was performed in determining the growth inhibition of cancer cells. MTS ((3-(4,5-dimethylthiazol-2-yl)-5-(3-carboxymethoxyphenyl)-2-(4-sulfophenyl)-2H-tetrazolium)), in the presence of phenazine methosulfate (PMS) and reductases, produces a formazan product that has an absorbance maximum at 490-500 nm. MTS assays (and closely related MTT assay) are commonly used to measure cell viabilities or survivals.
Briefly, KB/Hela, NCI-H460, A375, Colo205, HCT-116, U937, MCF-7, MDA-MB-231, A549, H1975 cells were seeded into 96-well plate at 4000, 4000, 2000, 2000, 2000 cells/well. After 24 h for attachment, test compound was added into each well and incubated for 72 h. A total of 20 μl of MTS reaction reagent containing the MTS (Promega, Madison, Wis.) and PMS in a ratio of 20:1 was added into each well to react with dehydrogenase enzyme in survival cells. After 3 h, the absorbance at 490 nm was monitored using Emax precision microplate reader (Molecular Devices, Sunnyvale, Calif.).
The growth inhibition rate of MTS assay at KB cell of these compounds (at 10 μM concentration) are list in Table 5.

binding rate (%) (colchicine competitive-binding) (biotinylated tubulin) | Structure (SMILES) | inhibition at 10 µM (KB cell) [%]
50.2 | Cc1ccc(CCC(=O)Nc2ncc(Cc3ccccc3)s2)o1 [Compound 1, N-(5-Benzyl-thiazol-2-yl)-3-(5-methyl-furan-2-yl)-propionamide] | 95.4
58.6 | O=C(CCc1cccnc1)Nc1ncc(Cc2ccc(F)cc2)s1 [Compound 4, N-[5-(4-Fluoro-benzyl)-thiazol-2-yl]-3-pyridin-3-yl-propionamide] | 93.9
63.8 | COc1ccc(Cc2cnc(NC(=O)CCc3ccc(C)o3)s2)cc1 [Compound 5, N-[5-(4-Methoxy-benzyl)-thiazol-2-yl]-3-(5-methyl-furan-2-yl)-propionamide] | 95.8
63.6 | O=C(CCc1ccccc1)Nc1ncc(Cc2ccc3c(c2)OCO3)s1 [Compound 6, N-(5-Benzo[1,3]dioxol-5-ylmethyl-thiazol-2-yl)-3-phenyl-propionamide] | 95.1
62.4 | COc1ccc(Cc2cnc(NC(=O)CCc3ccc(F)cc3)s2)cc1 [Compound 11, 3-(4-Fluoro-phenyl)-N-[5-(4-methoxy-benzyl)-thiazol-2-yl]-propionamide] | 95.1
51.2 | O=C(CCc1ccc(F)cc1)Nc1ncc(Cc2ccc(F)cc2)s1 [Compound 12, N-[5-(4-Fluoro-benzyl)-thiazol-2-yl]-3-(4-fluoro-phenyl)-propionamide] | 96
60.0 | COc1ccc2cc(Cc3cnc(NC(=O)CCc4ccc(F)cc4)s3)ccc2c1 [Compound 13, 3-(4-Fluoro-phenyl)-N-[5-(6-methoxy-naphthalen-2-ylmethyl)-thiazol-2-yl]-propionamide] | 94.6
64.9 | COc1cc(Cc2cnc(NC(=O)CCc3ccccc3)s2)cc(OC)c1OC [Compound 49, 3-Phenyl-N-[5-(3,4,5-trimethoxy-benzyl)-thiazol-2-yl]-propionamide] | 95.1
– | O=C(CCc1ccc(F)cc1)Nc1ncc(Sc2ccccc2)s1 [Compound 65, 3-(4-Fluoro-phenyl)-N-(5-phenylsulfanyl-thiazol-2-yl)-propionamide] | 96.3
– | O=C(CCc1cccnc1)Nc1ncc(Sc2ccccc2)s1 [Compound 66, N-(5-Phenylsulfanyl-thiazol-2-yl)-3-pyridin-3-yl-propionamide] | 93.3
– | O=C(CCc1ccccc1)Nc1ncc(Sc2ccccc2)s1 [Compound 67, 3-Phenyl-N-(5-phenylsulfanyl-thiazol-2-yl)-propionamide] | 96.6
– | COc1cccc(CCC(=O)Nc2ncc(Sc3ccccc3)s2)c1 [Compound 68, 3-(3-Methoxy-phenyl)-N-(5-phenylsulfanyl-thiazol-2-yl)-propionamide] | 94.4
– | Cc1ccc(CCC(=O)Nc2ncc(Sc3ccccc3)s2)o1 [Compound 72, 3-(5-Methyl-furan-2-yl)-N-(5-phenylsulfanyl-thiazol-2-yl)-propionamide] | 60
– | O=C(CCc1ccc(-c2ccccc2)cc1)Nc1ncc(Sc2ccccc2)s1 [Compound 73, 3-Biphenyl-4-yl-N-(5-phenylsulfanyl-thiazol-2-yl)-propionamide] | 97
– | COc1ccc(Oc2cnc(NC(=O)CCc3ccc(C)o3)s2)cc1 [Compound 74, N-[5-(4-Methoxy-phenoxy)-thiazol-2-yl]-3-(5-methyl-furan-2-yl)-propionamide] | 96.9
– | O=C(CCc1ccccc1)Nc1ncc(SCc2ccccc2)s1 [Compound 75, N-(5-Benzylsulfanyl-thiazol-2-yl)-3-phenyl-propionamide] | 82.5
– | COc1cccc(N2CCN(c3cnc(NC(=O)CCc4ccccc4)s3)CC2)c1 [Compound 76, N-{5-[4-(3-Methoxy-phenyl)-piperazin-1-yl]-thiazol-2-yl}-3-phenyl-propionamide] | 95
– | Cc1ccc(CCC(=O)Nc2ccc(-n3ccc4ccccc43)cn2)o1 [Compound 78, N-(5-Indol-1-yl-pyridin-2-yl)-3-(5-methyl-furan-2-yl)-propionamide] | 93.9
– | Cc1ccc(CCC(=O)Nc2ccc(Sc3ccccc3)cn2)o1 [Compound 80, 3-(5-Methyl-furan-2-yl)-N-(5-phenylsulfanyl-pyridin-2-yl)-propionamide] | 79.4
– | O=C(CCc1cccnc1)Nc1ccc(Sc2ccccc2)cn1 [Compound 82, N-(5-Phenylsulfanyl-pyridin-2-yl)-3-pyridin-3-yl-propionamide] | 95.6

binding rate (%) (colchicine competitive-binding) (biotinylated tubulin) | Structure (SMILES) | inhibition at 10 µM (KB cell) [%]
– | O=C(CCc1ccccc1)Nc1ccc(SCc2ccccc2)cn1 [Compound 86, N-(5-Benzylsulfanyl-pyridin-2-yl)-3-phenyl-propionamide] | 92.8
– | COc1ccc(Cc2nnc(NC(=O)CCc3ccc(C)o3)s2)cc1 [Compound 88, N-[5-(4-Methoxy-benzyl)-[1,3,4]thiadiazol-2-yl]-3-(5-methyl-furan-2-yl)-propionamide] | 93.5
– | COc1ccc(Cc2nnc(NC(=O)CCc3ccccc3)s2)cc1 [Compound 89, N-[5-(4-Methoxy-benzyl)-[1,3,4]thiadiazol-2-yl]-3-phenyl-propionamide] | 96.9
– | Cn1c(-c2ccccc2)cnc1NC(=O)CCc1ccccc1 [Compound 90, N-(1-Methyl-5-phenyl-1H-imidazol-2-yl)-3-phenyl-propionamide] | 96.6
– | Cc1ccc(CCC(=O)Nc2ncc(-c3ccccc3)n2C)o1 [Compound 91, 3-(5-Methyl-furan-2-yl)-N-(1-methyl-5-phenyl-1H-imidazol-2-yl)-propionamide] | 96
– | Cc1ccc(CCC(=O)Nc2ncc(/C=C/c3ccccc3)cn2)o1 [Compound 95, 3-(5-Methyl-furan-2-yl)-N-(5-styryl-pyrimidin-2-yl)-propionamide] | 93.6
– | O=C(/C=C/c1ccccc1)Nc1ncc(/C=C/c2ccccc2)cn1 [Compound 96, 3-Phenyl-N-(5-styryl-pyrimidin-2-yl)-acrylamide] | 96.8
– | O=C(CCc1ccccc1)Nc1ncc(/C=C/c2ccccc2)cn1 [Compound 97, 3-Phenyl-N-(5-styryl-pyrimidin-2-yl)-propionamide] | 52.7
– | COc1ccc(-c2cnc(NC(=O)CCc3ccc(C)o3)nc2)c(OC)c1 [Compound 107, N-[5-(2,4-Dimethoxy-phenyl)-pyrimidin-2-yl]-3-(5-methyl-furan-2-yl)-propionamide] | 97
– | O=C(Nc1ncc(-c2ccccc2)cn1)OCc1ccccc1 [Compound 108, (5-Phenyl-pyrimidin-2-yl)-carbamic acid benzyl ester] | 96.9
– | O=C(Nc1ncc(-c2ccc(F)cc2)cn1)OCc1ccccc1 [Compound 109, [5-(4-Fluoro-phenyl)-pyrimidin-2-yl]-carbamic acid benzyl ester] | 95.9
– | O=C(CCc1ccccc1)Nc1ccc(-c2ccccc2)cn1 [Compound 110, 3-Phenyl-N-(5-phenyl-pyridin-2-yl)-propionamide] | 97
– | O=C(CCc1ccccc1)Nc1ccc(-c2ccc(F)cc2)cn1 [Compound 113, N-[5-(4-Fluoro-phenyl)-pyridin-2-yl]-3-phenyl-propionamide] | 97.1
– | Cc1ccc(CCC(=O)Nc2ccc(-c3ccccc3)cn2)s1 [Compound 114, 3-(5-Methyl-thiophen-2-yl)-N-(5-phenyl-pyridin-2-yl)-propionamide] | 93.4
– | COc1cccc(-c2ccc(NC(=O)CCc3ccc(C)o3)nc2)c1OC [Compound 115, N-[5-(2,3-Dimethoxy-phenyl)-pyridin-2-yl]-3-(5-methyl-furan-2-yl)-propionamide] | 95.8
– | COc1cccc(-c2ccc(NC(=O)CCc3ccccc3)nc2)c1OC [Compound 116, N-[5-(2,3-Dimethoxy-phenyl)-pyridin-2-yl]-3-phenyl-propionamide] | 94.1
– | Cc1cc(-c2ccccc2)cnc1NC(=O)CCc1ccccc1 [Compound 117, N-(3-Methyl-5-phenyl-pyridin-2-yl)-3-phenyl-propionamide] | 94.6
– | Cc1cc(-c2ccc(N(C)C)cc2)cnc1NC(=O)C(C)Cc1ccccc1 (centres unmarked) [Compound 121, N-[5-(4-Dimethylamino-phenyl)-3-methyl-pyridin-2-yl]-2-methyl-3-phenyl-propionamide] | 93.5
– | Cc1ccc(CCC(=O)Nc2cnc(-c3ccccc3)cn2)o1 [Compound 122, 3-(5-Methyl-furan-2-yl)-N-(5-phenyl-pyrazin-2-yl)-propionamide] | 80.8

Source: patent publication US8883793B2, “Tubulin inhibitors and methods of using the same” (Development Center for Biotechnology, priority 2010, dated 2014)
